We go through one compound from paper PMC8780741, “Integration of In Silico, In Vitro and In Situ Tools for the Preformulation and Characterization of a Novel Cardio-Neuroprotective Compound during the Early Stages of Drug Development” (Pharmaceutics, 2022).

The nature of data set [1]: Provisional BCS classification. Also noted: key: drugs with high solubility/high permeability (Class 1); drugs with low solubility/high permeability (Class 2); drugs with high solubility/low permeability (Class 3); drugs with low solubility/low permeability (Class 4). From the text: The Biopharmaceutics Classification System (BCS) is a widely used scientific framework for waiver of in vivo bioequivalence studies, as well as for decision-making in drug discovery and development. This tool classifies drug substances according to solubility/dosage and permeability values as follows: drugs with high solubility/high permeability (Class 1), drugs with low solubility/high permeability (Class 2), drugs with high solubility/low permeability (Class 3) and drugs with low solubility/low permeability (Class 4). BCS has proven to be a very important tool for the identification of compounds whose solubility and absorption characteristics may be sensitive to physiological and formulation variables, allowing early optimization in the preformulation stages from the knowledge of the physicochemical properties of the active pharmaceutical ingredient (API). In this sense, it is evident that new compounds with low permeability and solubility/dissolution will have low and highly variable oral bioavailability, which may limit the chances of developing a clinically useful product.
Different provisional biopharmaceutical classification systems have been described in the literature. They mainly use alternative methodologies to predict intestinal permeability. Following the proposal of Kasim et al., JM-20 is a BCS Class 2, based on the aqueous solubility value at room temperature and in silico partition coefficients (log P and ClogP). JM-20 is also classified as BCS class 2 compound by the method proposed by Pham-The et al. where a provisional biopharmaceutical classification was developed based on solubility data (dose number, Do) and predicted or measured permeability in Caco-2 cells. At the same time, permeability values of JM-20 obtained with in vitro cell lines and in situ perfusion in rat were considered for the biopharmaceutical classification of this compound.

Data set [2] concerns the target T1, P-glycoprotein transporter (MDR1) (Homo sapiens, UniProt P08183).
T1 construct: expressed in transfected cells; host or cells: MDCK-MDR1 (transfected clone of Madin-Darby Canine Kidney cells)
Description: P-glycoprotein substrate assessment (B-A permeability MDCK-MDR1 vs MDCK). The class given is in vitro ADME. The conditions noted are these: B-A permeability higher in MDCK-MDR1 than in MDCK (p < 0.05). The method, then:
(§1) MDCK (Madin–Darby Canine Kidney) cells, their transfected clone MDCK-MDR1, and Caco-2 cells were grown in the modified Dulbecco Eagle medium added with L-glutamine, fetal bovine serum and penicillin−streptomycin. The number of cells seeded in transwells with a surface area of 4.2 cm^2 depended on the cell line: 250,000 cells/cm^2 for MDCK and Caco-2 and 150,000 cells/cm^2 for MDCK-MDR1. Experiments were performed between 7 and 9 days for MDCK and MDCK-MDR1 and between 19 and 21 for Caco-2 cells after seeding. Prior to drug placement, cell monolayer integrity was assessed by measuring transepithelial electrical resistance (TEER). Transport studies were performed on an orbital shaker at 37 °C and 50 rpm. Four samples of 200 μL were taken from the receptor side at 0, 15, 30, 60 and 90 min, and two samples from the donor compartment at the beginning and end of the experiment. A standard experiment was performed with the same buffer for the apical and basolateral compartments in the apical to basolateral (A-B) and basolateral to apical (B-A) directions. The drug concentration was 100 μM in all experiments and samples were analyzed immediately by HPLC. The retention time was 2.3 min at maximum wavelengths (λmax = 260 nm). […] The lower limit of quantitation of JM-20 was adequate to interpolate the values obtained in the samples. […]

Data set [3] has as its system rat small intestine. Description: In situ closed-loop (Doluisio) intestinal perfusion. The class given is in vivo. The conditions noted are these: 100 µM, n = 4. As for the experimental part: The animal experiments, performed on 250–300 g male Wistar rats, were designed following the guidelines described in EC Directive 86/609, Council of the Europe Convention ETS 123 and Spanish national laws about the use of animals in research, and were approved by the Spanish Committee (Spain, code A1330354541263).
The “closed-loop” in situ perfusion method, based on the Doluisio technique, was performed according to published reports. Briefly, in anesthetized rats in which an abdominal incision was made, the small intestine was located and the bile duct was ligated avoiding enterohepatic circulation of the drug. The procedure for making three loops in the duodenum, jejunum, and ileum was the same as previously described. Intestinal contents were removed by washing with physiological solutions and the peritoneal cavity was covered with cotton wool pads to prevent evaporation of peritoneal fluid and loss of body heat.
A solution of JM-20 (100 µM) was perfused with one syringe, and 5 min later the sample was collected with the other syringe. This procedure was performed alternatively for 30 min to ensure mixing of the solution in the lumen of small intestine. Samples were immediately analyzed for JM-20 at maximum wavelengths (λmax = 262 nm) by HPLC (Alliance-Waters 2695) using a Nova-Pak C18 column (4 μM, 3.9 × 150 mm) and UV detector (Waters 2487). The analytical procedure was as follows previously validated. The exact length of the intestine was determined at the end of the study.
The calculation of permeability takes into account that water flux during the experiment can be significant, the drug concentration in each sample was modified according to the following Equation (3):(3) C=CeVT/V0 where Ct represents the concentration without water reabsorption at time t, Ce is the experimental concentration value, V0 is the initial volume and Vt is the final volume. The coefficient of absorption rate (ka) and the initial concentration of JM-20 available for absorption (C0) were determined by non-linear regression of the following Equation (4):(4) Ct=C0·e^−kat […]

The nature of data set [4]: Apparent permeability across MDCK monolayers. The class given is in vitro ADME, Canine. The conditions noted are these: dog, 37 °C, stirring at 50 rpm. As for the experimental part:
as §1

The structures appear in SMILES notation.

T1 sequence (P08183 whole entry): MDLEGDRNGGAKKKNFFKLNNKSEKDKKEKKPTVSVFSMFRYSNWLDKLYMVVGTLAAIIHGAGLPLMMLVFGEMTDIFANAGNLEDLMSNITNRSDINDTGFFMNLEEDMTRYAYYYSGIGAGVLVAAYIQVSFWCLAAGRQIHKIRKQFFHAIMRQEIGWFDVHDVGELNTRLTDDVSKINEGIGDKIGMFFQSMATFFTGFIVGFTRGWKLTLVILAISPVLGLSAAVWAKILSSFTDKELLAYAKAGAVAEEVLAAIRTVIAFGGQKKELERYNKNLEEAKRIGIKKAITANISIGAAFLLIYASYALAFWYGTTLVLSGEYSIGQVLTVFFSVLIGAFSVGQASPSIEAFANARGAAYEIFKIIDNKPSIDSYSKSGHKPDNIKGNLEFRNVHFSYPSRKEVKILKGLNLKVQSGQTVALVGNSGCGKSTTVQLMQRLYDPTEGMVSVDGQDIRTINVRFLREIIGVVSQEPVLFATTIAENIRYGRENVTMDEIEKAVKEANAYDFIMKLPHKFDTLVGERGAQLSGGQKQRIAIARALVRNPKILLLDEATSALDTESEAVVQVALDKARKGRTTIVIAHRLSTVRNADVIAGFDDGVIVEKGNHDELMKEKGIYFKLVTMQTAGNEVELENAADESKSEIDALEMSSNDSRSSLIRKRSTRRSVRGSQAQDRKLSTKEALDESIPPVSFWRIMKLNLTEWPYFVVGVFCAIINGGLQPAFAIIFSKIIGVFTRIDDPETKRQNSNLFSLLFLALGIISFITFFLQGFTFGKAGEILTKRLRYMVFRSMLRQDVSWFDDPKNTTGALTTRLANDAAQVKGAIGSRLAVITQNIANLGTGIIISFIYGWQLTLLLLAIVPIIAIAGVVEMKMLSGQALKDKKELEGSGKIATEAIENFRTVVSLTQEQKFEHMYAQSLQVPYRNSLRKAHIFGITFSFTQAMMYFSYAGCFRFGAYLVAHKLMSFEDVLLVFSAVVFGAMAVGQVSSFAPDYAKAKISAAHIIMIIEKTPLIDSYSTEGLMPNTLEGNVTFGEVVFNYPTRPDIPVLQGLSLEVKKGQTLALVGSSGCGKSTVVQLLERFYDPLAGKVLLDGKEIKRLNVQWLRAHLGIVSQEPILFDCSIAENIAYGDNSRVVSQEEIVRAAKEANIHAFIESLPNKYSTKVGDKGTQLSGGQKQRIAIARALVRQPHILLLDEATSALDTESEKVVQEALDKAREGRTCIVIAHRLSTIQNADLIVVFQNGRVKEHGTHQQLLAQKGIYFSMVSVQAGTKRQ

The compound `CCOC(=O)C1=C(C)NC2=C(C=Nc3ccccc3N2)C1c1ccccc1[N+](=O)[O-]` (stereo not shown) [JM-20, 3-ethoxycarbonyl-2-methyl-4-(2-nitrophenyl)-4,11-dihydro-1H-pyrido [2,3-b][1,5] benzodiazepine] returned a BCSCaco-2 in data set [1] (BCS class from dose number and Caco-2 permeability) of 2. This compound also yielded a BCSMDCK in data set [1] (BCS class from dose number and MDCK permeability) of 2. Moreover, in data set [1] (BCS class from dose number and rat in situ permeability), the BCSrat is recorded as 2. This compound also registered a BCSGlobal in data set [1] (overall provisional BCS class) of 2. In data set [2], the “Substrate of the P-glycoprotein transporter (MDR1)” value is listed as “substrate of the P-glycoprotein transporter (MDR1)”. For the same compound, the “Peff ± SD” value was 9.20 ± 0.89 ×10^−5 cm/s in data set [3] (Duodenum), 6.82 ± 1.44 ×10^−5 cm/s in data set [3] (Ileum) and 6.63 ± 1.30 ×10^−5 cm/s in data set [3] (Jejunum). Moreover, the Papp A→B at 90 min, 100 µM in data set [4] amounted to 24.6 ± 1.1 ×10⁻⁶ cm/s. Also, the Papp B→A at 90 min, 100 µM in data set [4] is 2.8 ± 7.1 ×10⁻⁶ cm/s.
